Results on twelve compounds are retold here after US9796672B2, “Isoindoline compositions and methods for treating neurodegenerative disease” (Cognition Therapeutics, Inc., priority 2014, dated 2017).

One series concerns the target Sigma-1 receptor. Description: Sigma-1 receptor competitive radioligand binding assay. As to conditions: read-out: Sigma-1 Receptor Affinity, Ki.
The target of the next series is Sigma-2 receptor. Description: Sigma-2 receptor competitive radioligand binding assay. Details: species or system rat. As to conditions: read-out: Sigma-2 Receptor Affinity, Ki.
A short description of series [1]: Mouse liver microsome (MLM) stability. It counts as in vitro ADME. As to conditions: mouse, microsomes. The method, then: A first pharmacokinetic study was performed in microsomes of mice mouse liver microsomes, MLM) by a commercial contract research organization. The studies were performed according to Obach, R. S et al. (1997) J. Pharmacol. Exp. Ther., 283: 46-58, which is incorporated herein by reference.

Series [2] has as its system Abeta oligomer-induced membrane trafficking deficits in primary hippocampal neurons. Description: Membrane trafficking/exocytosis (MTT) assay. The conditions noted are these: read-out: Membrane Trafficking EC50; compound dosed prior to Abeta oligomer addition.
The subject of the next series is neuronal cultures. Description: Functional neuronal phenotype in neuronal cultures. Details: key: Antagonist: antagonists (block Abeta signaling); Agonist: agonists (block Abeta signaling with U-shaped dose-response curve and toxicity at high doses); Inactive: inactive (no effect in neuronal cultures). The format is cell-based.
The target in another series is potassium channel hERG (Homo sapiens (Human), UniProt Q12809). Kind of series: In vitro toxicity, hERG inhibition. The format is biochemical.
Sequence of potassium channel hERG (Q12809 whole entry): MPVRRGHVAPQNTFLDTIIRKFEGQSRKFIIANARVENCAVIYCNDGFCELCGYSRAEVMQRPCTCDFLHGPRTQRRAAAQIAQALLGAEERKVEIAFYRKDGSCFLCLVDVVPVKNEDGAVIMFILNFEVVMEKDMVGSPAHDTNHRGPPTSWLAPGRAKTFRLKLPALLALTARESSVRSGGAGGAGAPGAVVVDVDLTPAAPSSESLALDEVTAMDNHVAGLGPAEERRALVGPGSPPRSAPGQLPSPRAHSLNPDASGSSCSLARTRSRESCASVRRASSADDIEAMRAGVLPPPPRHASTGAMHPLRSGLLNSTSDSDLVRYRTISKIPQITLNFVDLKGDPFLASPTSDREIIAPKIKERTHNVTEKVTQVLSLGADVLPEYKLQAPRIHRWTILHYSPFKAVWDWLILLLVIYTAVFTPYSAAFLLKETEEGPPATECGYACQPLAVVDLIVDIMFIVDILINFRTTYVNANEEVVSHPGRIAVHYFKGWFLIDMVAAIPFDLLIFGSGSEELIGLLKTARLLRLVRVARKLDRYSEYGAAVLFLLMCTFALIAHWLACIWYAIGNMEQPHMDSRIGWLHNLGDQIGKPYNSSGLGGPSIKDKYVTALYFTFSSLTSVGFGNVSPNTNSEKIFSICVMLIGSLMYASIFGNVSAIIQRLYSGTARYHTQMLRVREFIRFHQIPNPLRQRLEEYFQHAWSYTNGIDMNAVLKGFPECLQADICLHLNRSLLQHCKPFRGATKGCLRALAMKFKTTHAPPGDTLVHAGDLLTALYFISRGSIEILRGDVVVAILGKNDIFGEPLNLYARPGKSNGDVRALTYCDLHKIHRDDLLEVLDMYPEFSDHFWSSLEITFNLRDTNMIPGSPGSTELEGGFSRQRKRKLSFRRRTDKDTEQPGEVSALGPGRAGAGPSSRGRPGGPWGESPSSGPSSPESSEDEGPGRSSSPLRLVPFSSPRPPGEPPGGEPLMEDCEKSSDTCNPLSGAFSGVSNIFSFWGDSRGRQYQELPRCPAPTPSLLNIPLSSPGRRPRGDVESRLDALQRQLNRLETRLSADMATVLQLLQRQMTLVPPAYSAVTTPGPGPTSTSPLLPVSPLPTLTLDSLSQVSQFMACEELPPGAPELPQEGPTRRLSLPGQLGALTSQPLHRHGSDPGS

Method for Sigma-1 receptor: Radioligand binding assays for Sigma-1 receptors and Sigma-2 receptors were carried out by a commercial contract research organization. For Sigma-1 binding, various concentrations of test compounds from 100 μM to 1 nM were used to displace 8 nM [^3H](+)pentazocine from endogenous receptors on Jurkat cell membranes (Ganapathy M E et al. 1991, J Pharmacol. Exp. Ther. 289:251-260). 10 μM Haloperidol was used to define non-specific binding. […] 10 μM Haloperidol was used to define non-specific binding. Reactions were terminated by rapid filtration through Whatman GF/C filters using a Brandel 12R cell harvester followed by two washes with ice-cold buffer. Radioactivity on the dried filter discs was measured using a liquid scintillation analyzer (Tri-Carb 2900TR; PerkinElmer Life and Analytical Sciences). The displacement curves were plotted and the Ki values of the test ligands for the receptor subtypes were determined using GraphPad Prism (GraphPad Software Inc., San Diego, Calif.). The percentage specific binding was determined by dividing the difference between total bound (disintegrations per minute) and nonspecific bound (disintegrations per minute) by the total bound (disintegrations per minute).
Method for neuronal cultures: Neuronal cultures are treated with various concentrations of sigma compounds for 24 hours and nuclear intensity compared to vehicle is measured.
Method for potassium channel hERG: In vitro toxicity for Test Compounds is tested in a number of standard assays.

On to `C[C@H](CCc1ccc(Cl)c(Cl)c1)N1Cc2ccc3ccccc3c2C1` [compound 19], for which the Ki amounted to 0.069 µM at Sigma-1 receptor and 0.0018 µM on Sigma-2 receptor. In addition, in series [1], the “Mouse liver microsomes, MLM t½” value is on record as 25 min. The concentration giving a half-maximal response (EC50) in series [2] amounted to 0.27 µM. Besides, in the series with neuronal cultures, the neuronal phenotype result was “Weak”. Also, half-maximal inhibition against potassium channel hERG (IC50) required 98 µM.
Regarding `C[C@H](CCc1ccc(O)c(OC(C)(C)C)c1)N1Cc2c(F)ccc(F)c2C1` [60A], the Ki on Sigma-1 receptor stood at 0.41 µM; on Sigma-2 receptor it was 1.6 µM. Besides, in series [1], the “Mouse liver microsomes, MLM t½” value is 5 min. For the same compound, in series [2], the 50% effective concentration (EC50) is > 20 µM. In addition, the neuronal phenotype entry in the series on neuronal cultures is “Antagonist”. For the same compound, the IC50 against potassium channel hERG stood at 100 µM.
With `C[C@H](CCc1ccc(Cl)c(Cl)c1)N1Cc2cc3c(cc2C1)OCO3` [compound 10], the results for the inhibitory constant (Ki) on Sigma-1 receptor and on Sigma-2 receptor were 0.0014 µM and 0.005 µM, respectively. For the same compound, the “Mouse liver microsomes, MLM t½” value in series [1] was 8 min. For the same compound, the EC50 in series [2] turned out to be 0.5 µM. Further, the neuronal phenotype entry in the series on neuronal cultures is listed as “Antagonist”. This compound had an IC50 on potassium channel hERG of 41 µM.
Take `CN(C)C(=O)c1cccc2c1CN(C(C)(C)CCc1ccc(O)c(OC(F)(F)F)c1)C2` [compound 57]: the results for the Ki at Sigma-1 receptor and on Sigma-2 receptor were 0.7 µM and 0.095 µM, respectively. The “Mouse liver microsomes, MLM t½” value in series [1] came out at 26 min. In addition, the EC50 in series [2] was > 20 µM. In addition, in the series on neuronal cultures, the neuronal phenotype entry is given as “Inactive”. Further, the IC50 on potassium channel hERG is 5 µM.
For the compound `C[C@H](CCc1ccc(F)cc1)N1Cc2ccc(F)cc2C1` [compound 22], the Ki at Sigma-1 receptor was determined as 0.044 µM; on Sigma-2 receptor, 0.023 µM. The “Mouse liver microsomes, MLM t½” value in series [1] was 7 min. Besides, the EC50 in series [2] was < 0.25 µM. Moreover, the neuronal phenotype entry in the series on neuronal cultures is “Antagonist”. The compound also gave an IC50 at potassium channel hERG of 0.35 µM.
On to `C[C@H](CCc1ccc(O)c(OC(F)(F)F)c1)N1Cc2ccc(F)cc2C1` [compound 31], for which the Ki on Sigma-1 receptor came to 0.0037 µM; on Sigma-2 receptor it was 0.058 µM. Further, in series [1], the “Mouse liver microsomes, MLM t½” value stood at 6 min. Besides, the EC50 in series [2] was < 0.25 µM. Moreover, the neuronal phenotype entry in the series on neuronal cultures is listed as “Antagonist”. Further, on potassium channel hERG, the IC50 stood at 1.9 µM.
In the case of `COc1cc2c(cc1OC)CN([C@@H](C)CCc1ccc(Cl)c(Cl)c1)C2` [compound 20], the values for the Ki on Sigma-1 receptor and on Sigma-2 receptor were 0.00057 µM and 0.00067 µM, respectively. In series [1], the “Mouse liver microsomes, MLM t½” value turned out to be 43 min. For the same compound, in series [2], the EC50 lay within 0.067 to 0.6 µM. Also, at potassium channel hERG, the IC50 was 0.66 µM.
For `COCCNC(=O)c1cccc2c1CN(C(C)(C)CCc1ccc(O)c(OC)c1)C2` [compound 84], in that order: 10 µM, 10 µM, 163 min, 100 µM and 6.6 µM.
For the compound `CC(C)Oc1cc(CC[C@@H](C)N2Cc3ccc(S(C)(=O)=O)cc3C2)ccc1O` [compound 69], the results for the inhibitory constant (Ki) on Sigma-1 receptor and at Sigma-2 receptor were 0.027 µM and 0.076 µM, respectively. Also, in series [1], the “Mouse liver microsomes, MLM t½” value came to 75 min. Further, the neuronal phenotype entry in the series with neuronal cultures is on record as “Inactive”. At potassium channel hERG, the IC50 was determined as 9.5 µM.
On to `COc1cc(CCC(C)(C)N2Cc3cccc(S(C)(=O)=O)c3C2)ccc1O` [compound 64], for which the Ki at Sigma-1 receptor worked out at 0.18 µM; at Sigma-2 receptor, 0.0086 µM. The “Mouse liver microsomes, MLM t½” value in series [1] was found to be 52 min. In addition, in the series with neuronal cultures, the neuronal phenotype result is listed as “Inactive”. At potassium channel hERG, the IC50 was 20 µM.
For `C[C@H](CCc1ccc(O)c(OC(C)(C)C)c1)N1Cc2ccc(S(C)(=O)=O)cc2C1` [compound 63], the Ki at Sigma-1 receptor worked out at 0.017 µM; on Sigma-2 receptor, 0.38 µM. Besides, in series [1], the “Mouse liver microsomes, MLM t½” value was 31 min. Further, the neuronal phenotype entry in the series on neuronal cultures is “Inactive”. Also, the IC50 against potassium channel hERG came to 11 µM.
On to `COc1cc(CCC(C)(C)N2Cc3cccc(F)c3C2)ccc1OCCO` [compound 44], for which the results for the Ki at Sigma-1 receptor and on Sigma-2 receptor were 1.3 µM and 0.14 µM, respectively. In addition, the “Mouse liver microsomes, MLM t½” value in series [1] is reported as 29 min. Besides, the neuronal phenotype entry in the series with neuronal cultures is given as “Antagonist”. At potassium channel hERG, this compound gave an IC50 of 0.099 µM.
